Columns and labels:
[1] = major metabolite of sesamin; cited from earlier work
aromatase = target: T1, aromatase (Homo sapiens, UniProt P11511); settings: cited from earlier work
T1 sequence (P11511 1-503): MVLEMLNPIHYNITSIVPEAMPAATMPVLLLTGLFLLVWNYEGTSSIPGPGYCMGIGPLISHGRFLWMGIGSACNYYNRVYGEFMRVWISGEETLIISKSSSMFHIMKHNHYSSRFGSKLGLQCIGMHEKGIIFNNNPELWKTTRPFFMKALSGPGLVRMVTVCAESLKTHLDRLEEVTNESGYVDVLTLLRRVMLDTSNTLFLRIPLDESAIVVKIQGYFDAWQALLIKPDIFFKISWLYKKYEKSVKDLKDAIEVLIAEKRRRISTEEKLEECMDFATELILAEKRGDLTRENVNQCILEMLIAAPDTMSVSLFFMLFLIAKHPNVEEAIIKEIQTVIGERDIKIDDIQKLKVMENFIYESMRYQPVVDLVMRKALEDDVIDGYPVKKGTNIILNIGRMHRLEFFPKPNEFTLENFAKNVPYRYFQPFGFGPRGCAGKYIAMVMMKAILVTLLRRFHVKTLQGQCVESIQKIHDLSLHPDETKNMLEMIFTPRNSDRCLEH

[2] = tested on: hot flashes in female subjects experiencing symptoms of perimenopause; experiment: Clinical trial of dietary supplement formulas on frequency and severity of hot flashes; assay type: in vivo, women; settings: summary of the trials
Experimental: In a clinical trial explained below, 36 mg of HMR Lignan was used and in another example, 20 mg was initially used. In the same clinical trial, the carotenoid such as lycopene was used. The lycopene could be formed as a lycopene complex that includes at least one of phytoene, phytofluene, beta-carotene, tocopherols and phytosterols. In an example, 2 to 10 mg of lycopene was used and in another example, 4 to 8 mg of lycopene was used. In a clinical trial explained below, either 8 or 4 mg of lycopene was used and in an example, 0 mg in order to determine the efficacy of the lycopene relative to the HMR Lignan and other components. The composition also included 40 to 120 mg of Diindolymethane (DIM) or 30 to 140 mg of Diindolymethane, and in an example, 50 milligrams of DIM was used in one trial and 100 milligrams in another trial. About 40 to 80 mg of cranberry was used and in an example, 60 milligrams of cranberry was used as cranberry powder, which gave the coloring and other benefits. Cranberry is used to help relieve adverse urinary symptoms and aid and treat urinary tract infections. Other carotenoids that may possibly be used include at least one of astaxanthin, zeaxanthin, lutein, and xanthophylis.
A study was conducted to evaluate the effectiveness of a dietary supplement formulation on the reduction and severity of hot flashes in women. […]

[3] = cited from earlier work
[4] = tested on: endometrial, breast and lung cancer cell lines; settings: compared with alpha or beta-carotene; cited from earlier work
[5] = tested on: estrogen sensitive human breast and endometrial cancer cells; settings: cell cycle progression in G0/G1 phase; cited from earlier work

SMILES: O=C1OC[C@H](Cc2cccc(O)c2)[C@H]1Cc1cccc(O)c1 [Enterolactone, enterolactone]
- Elimination half life [1]: less than 6 hours
- Aromatase activity (aromatase): inhibit aromatase activity

SMILES: CC(C)=CCC/C(C)=C/C=C/C(C)=C/C=C/C(C)=C/C=C/C=C(C)/C=C/C=C(C)/C=C/C=C(\C)CCC=C(C)C [Lycopene]
- Conclusion on control of hot flashes [2]: work alone to control hot flashes
- Solubility in water [3]: insoluble
- Inhibition of proliferation, relative potency [4]: more potent that alpha or beta-carotene
- Inhibition of IGF-1 induced proliferation [5]: inhibit

Source: patent US10172826B2, “Composition and method to treat and alleviate symptoms of hot flashes in a subject” (U.S. NUTRACEUTICALS, LLC, priority 2015, dated 2019)
